Laboratory results taken from ChEMBL document CHEMBL5380875, “Discovery of a Potent and Oral Available Complex I OXPHOS Inhibitor That Abrogates Tumor Growth and Circumvents MEKi Resistance” (J Med Chem, 2023).
pIC50: −log10 of the molar value. Active and inactive are the calls of the source. The rule behind the calls is not given here.

Experiments:
A549 [1] = assay: Inhibition of mitochondrial respiration in human Trametinib-resistant A549 cell assessed as reduction in maximal oxygen consumption rate at 50 to 200 nM incubated for 12 hrs by seahorse XF96 flux analyzer; type: functional, cell-based; conditions: dose 50-200 nM
NCI-H460 [2] = assay: Inhibition of mitochondrial complex IV in human NCI-H460 cells at 1 uM incubated for 12 hrs by seahorse XF96 metabolic flux analyzer relative to control; type: cell-based
NCI-H358 = assay: Antiproliferative activity against human NCI-H358 cells with low-OXPHOS assessed as reduction in cell viability incubated for 5 days by CellTiter 96 cell proliferation assay; type: functional, cell-based; conditions: NCI-H358, 120 h
NCI-H441 [3] = assay: Inhibition of colony formation in human NCI-H441 cells with high-OXPHOS incubated for 7 days by crystal violet staining based analysis; type: functional, cell-based; conditions: dose 250-1000 nM, time 7.0 day
NCI-H460 [4] = assay: Inhibition of mitochondrial respiration in human NCI-H460 cells with high-OXPHOS assessed as reduction in maximal oxygen consumption rate incubated for 12 hrs by seahorse XF96 flux analyzer; type: functional, cell-based; conditions: dose 50-200 nM
NCI-H460 [5] = assay: Inhibition of mitochondrial respiration in human NCI-H460 cells with high-OXPHOS assessed as reduction in spare oxygen consumption rate capacity incubated for 12 hrs by seahorse XF96 flux analyzer; type: functional, cell-based; conditions: dose 50-200 nM
NCI-H441 [6] = assay: Inhibition of mitochondrial respiration in human NCI-H441 cells with high-OXPHOS assessed as reduction in basal oxygen consumption rate incubated for 12 hrs by seahorse XF96 flux analyzer; type: functional, cell-based; conditions: dose 50-200 nM
NCI-H441 [7] = assay: Inhibition of mitochondrial respiration in human NCI-H441 cells with high-OXPHOS assessed as reduction in maximal oxygen consumption rate incubated for 12 hrs by seahorse XF96 flux analyzer; type: functional, cell-based; conditions: dose 50-200 nM
Cytochrome P450 2C9 = Cytochrome P450 2C9 (Homo sapiens, UniProt P11712); assay: Inhibition of CYP2C9 in human liver microsomes; type: ADME, Microsome
Cytochrome P450 2C9, sequence (P11712 whole entry): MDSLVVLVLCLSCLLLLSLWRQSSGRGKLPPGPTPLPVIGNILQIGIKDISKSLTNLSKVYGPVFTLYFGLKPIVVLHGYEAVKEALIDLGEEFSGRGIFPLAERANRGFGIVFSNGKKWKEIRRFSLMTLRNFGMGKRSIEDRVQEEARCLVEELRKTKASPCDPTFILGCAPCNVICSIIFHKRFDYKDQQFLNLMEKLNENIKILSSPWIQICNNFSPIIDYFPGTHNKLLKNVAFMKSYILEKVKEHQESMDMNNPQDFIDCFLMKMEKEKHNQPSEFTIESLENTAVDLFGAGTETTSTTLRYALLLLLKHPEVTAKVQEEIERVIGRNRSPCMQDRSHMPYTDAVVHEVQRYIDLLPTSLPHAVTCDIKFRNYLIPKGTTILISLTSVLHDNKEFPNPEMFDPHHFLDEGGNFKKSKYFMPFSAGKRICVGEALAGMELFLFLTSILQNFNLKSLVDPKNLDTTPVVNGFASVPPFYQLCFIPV

Cytochrome P450 2C19 = Cytochrome P450 2C19 (Homo sapiens, UniProt P33261); assay: Inhibition of CYP2C19 in human liver microsomes; type: ADME, Microsome
Cytochrome P450 2C19, sequence (P33261 whole entry): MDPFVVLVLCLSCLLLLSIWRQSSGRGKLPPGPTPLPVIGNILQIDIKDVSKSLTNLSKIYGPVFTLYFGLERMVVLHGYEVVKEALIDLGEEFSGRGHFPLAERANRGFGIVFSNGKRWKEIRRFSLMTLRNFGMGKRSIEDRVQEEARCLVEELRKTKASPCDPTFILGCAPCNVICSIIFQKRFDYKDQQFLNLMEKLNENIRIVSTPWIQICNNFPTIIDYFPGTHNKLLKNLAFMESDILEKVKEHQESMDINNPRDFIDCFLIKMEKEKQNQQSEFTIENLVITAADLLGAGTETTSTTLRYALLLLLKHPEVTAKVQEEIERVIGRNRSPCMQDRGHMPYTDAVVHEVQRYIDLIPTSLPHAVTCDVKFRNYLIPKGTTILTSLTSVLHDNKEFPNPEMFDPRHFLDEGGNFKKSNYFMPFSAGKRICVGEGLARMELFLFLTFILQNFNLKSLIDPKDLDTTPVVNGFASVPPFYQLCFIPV

[8] = Tmax in ICR mouse at 1 mg/kg, iv measured for 24 hrs by LC-MS/MS analysis; type: ADME, organism-based; conditions: in vivo
[9] = Tmax in ICR mouse at 10 mg/kg, po measured for 24 hrs by LC-MS/MS analysis; type: ADME, organism-based; conditions: in vivo
[10] = Apparent volume of distribution in ICR mouse at 1 mg/kg, iv measured for 24 hrs by LC-MS/MS analysis; type: ADME, organism-based; conditions: in vivo, read-out: Vz
[11] = MRT (0 to 24 hrs) in ICR mouse at 10 mg/kg, po measured for 24 hrs by LC-MS/MS analysis; type: ADME, organism-based; conditions: in vivo
NCI-H460 [12] = assay: Potentiation of trametinib-induced antitumor activity against human NCI-H460 cells with high-OXPHOS xenografted in mouse assessed as reduction in tumor weight at 30 mg/kg, po bid administered for 18 days and measured every 3 days by electronic caliper analysis; type: functional, organism-based; conditions: time 18.0 day
NCI-H460 [13] = assay: Antitumor activity against human NCI-H460 cells with high-OXPHOS xenografted in mouse assessed as reduction in trametinib-induced oxidative phosphorylation at 30 mg/kg, po bid administered for 18 days; type: functional, organism-based; conditions: time 18.0 day
[14] = Toxicity in mouse xenografted with human NCI-H460 cells with high-OXPHOS assessed as reduction in body weight at 30 mg/kg, po bid administered for 18 days; type: organism-based; conditions: in vivo, 432 h, time 18 day
[15] = Toxicity in mouse xenografted with human NCI-H460 cells with high-OXPHOS assessed as reduction in serum AST level at 30 mg/kg, po bid administered for 18 days; type: organism-based; conditions: in vivo, 432 h, time 18 day
[16] = Toxicity in mouse xenografted with human NCI-H460 cells with high-OXPHOS assessed as reduction in serum creatinine level at 30 mg/kg, po bid administered for 18 days; type: organism-based; conditions: in vivo, 432 h, time 18 day
[17] = Toxicity in mouse xenografted with human NCI-H460 cells with high-OXPHOS assessed as pathological changes in heart at 30 mg/kg, po bid administered for 18 days by H and E staining based analysis; type: organism-based; conditions: in vivo, 432 h, time 18 day
[18] = Toxicity in mouse xenografted with human NCI-H460 cells with high-OXPHOS assessed as pathological changes in liver at 30 mg/kg, po bid administered for 18 days by H and E staining based analysis; type: organism-based; conditions: in vivo, 432 h, time 18 day
[19] = Toxicity in mouse xenografted with human NCI-H460 cells with high-OXPHOS assessed as pathological changes in kidney at 30 mg/kg, po bid administered for 18 days by H and E staining based analysis; type: organism-based; conditions: in vivo, 432 h, time 18 day
[20] = Cytotoxicity against human HPNE cells assessed as reduction in cell viability incubated for 5 days by CellTiter 96 cell proliferation assay; type: toxicity, cell-based
NCI-H460 [21] = assay: Induction of apoptosis in human NCI-H460 cells with high-OXPHOS assessed as early apoptotic cells at 30 nM incubated for 48 hrs by Annexin V-FITC/propidium iodide staining based flow cytometry analysis (reference value: 3.55%); type: functional
NCI-H460 [22] = assay: Induction of apoptosis in human NCI-H460 cells with high-OXPHOS assessed as late apoptotic cells at 30 nM incubated for 48 hrs by Annexin V-FITC/propidium iodide staining based flow cytometry analysis (reference value: 12.8%); type: functional
NCI-H441 [23] = assay: Induction of apoptosis in human NCI-H441 cells with high-OXPHOS assessed as late apoptotic cells at 30 nM incubated for 48 hrs by Annexin V-FITC/propidium iodide staining based flow cytometry analysis (reference value: 9.27%); type: functional
NCI-H441 [24] = assay: Potentiation of trametinib-induced cytotoxicity against human NCI-H441 cells with high-OXPHOS harboring KRAS G12V mutant assessed as reduction in cell viability at 10 to 20 uM incubated for 72 hrs by CellTiter 96 cell proliferation assay; type: functional, cell-based; conditions: dose 10-20 µM
A549 [25] = assay: Potentiation of trametinib-induced cytotoxicity against human Trametinib-resistant A549 cells with high-OXPHOS harboring KRAS G12S mutant assessed as reduction in cell viability at 10 to 20 uM incubated for 72 hrs by CellTiter 96 cell proliferation assay; type: functional, cell-based; conditions: dose 10-20 µM
NCI-H460 [26] = assay: Inhibition of colony formation in human NCI-H460 cells with high-OXPHOS harboring KRAS Q61H mutant incubated for 10 to 14 days in presence of trametinib by crystal violet staining based analysis; type: functional, cell-based; conditions: time 10-14 day
A549 [27] = assay: Inhibition of colony formation in human Trametinib-resistant A549 cells with high-OXPHOS harboring KRAS G12S mutant incubated for 10 to 14 days in presence of trametinib by crystal violet staining based analysis; type: functional, cell-based; conditions: time 10-14 day
NCI-H460 [28] = assay: Induction of apoptosis in human NCI-H460 cells with high-OXPHOS harboring KRAS Q61H mutant assessed as early apoptotic cells at 20 nM incubated for 72 hrs in presence of trametinib by Annexin V-FITC/propidium iodide staining based flow cytometry analysis (reference value: 1.95%); type: functional
NCI-H460 [29] = assay: Induction of apoptosis in human NCI-H460 cells with high-OXPHOS harboring KRAS Q61H mutant assessed as early apoptotic cells at 20 nM incubated for 72 hrs by Annexin V-FITC/propidium iodide staining based flow cytometry analysis (reference value: 1.95%); type: functional
A549 [30] = assay: Induction of apoptosis in human Trametinib-resistant A549 cells with high-OXPHOS harboring KRAS G12S mutant assessed as late apoptotic cells at 20 nM incubated for 72 hrs in presence of trametinib by Annexin V-FITC/propidium iodide staining based flow cytometry analysis (reference value: 4.31%); type: functional

Cc1c(C(=O)N2CCN(Cc3ccc(OCC(F)(F)F)cc3)CC2)nnn1Cc1ccc(C(=O)Nc2ccc(C(F)(F)F)cc2)nc1
inhibition (A549 [1]): Active | inhibition (NCI-H460 [2]): 10.4% | pIC50 (NCI-H358): < 6.00 | inhibition (NCI-H441 [3]): Dose-Dependent Effect | inhibition (NCI-H460 [4]): Dose-Dependent Effect | inhibition (NCI-H460 [5]): Dose-Dependent Effect | inhibition (NCI-H441 [6]): Dose-Dependent Effect | inhibition (NCI-H441 [7]): Dose-Dependent Effect | pIC50 (Cytochrome P450 2C9): 4.84 | pIC50 (Cytochrome P450 2C19): < 4.30 | Tmax [8]: 4.8 min | Tmax [9]: 1 h | Vd [10]: 9.34 L/kg | MRT last at 24 h [11]: 3 h | Activity (NCI-H460 [12]): Active | Activity (NCI-H460 [13]): Active | Activity [14]: Non-Toxic | Activity [15]: Non-Toxic | Activity [16]: Non-Toxic | Activity [17]: Non-Toxic | Activity [18]: Non-Toxic | Activity [19]: Non-Toxic | IC50 at 5 days [20]: > 10 µM | Activity (NCI-H460 [21]): 7.08% | Activity (NCI-H460 [22]): 37.8% | Activity (NCI-H441 [23]): 30.9% | Activity (NCI-H441 [24]): Active | Activity (A549 [25]): Active | inhibition (NCI-H460 [26]): Active | inhibition (A549 [27]): Active | Activity (NCI-H460 [28]): 26.2% | Activity (NCI-H460 [29]): 2.87% | Activity (A549 [30]): 43.4%
